We go through 1 compound from publication PMC7910394, “Design of PSMA ligands with modifications at the inhibitor part: an approach to reduce the salivary gland uptake of radiolabeled PSMA inhibitors?” (EJNMMI Radiopharmacy and Chemistry, 2021).

Data set [1] relates to LNCaP tumor xenograft-bearing CB17-SCID mouse. It is filed as in vivo. As to conditions: 1 h p.i. The protocol:
Detailed information on organ preparation and extraction procedures is provided in the supporting information. In brief, [^177Lu]Lu-11 (9.64 MBq) was injected into the tail vein of a LNCaP tumor xenograft-bearing CB17-SCID mouse. The animal was sacrificed 1 h p.i. and subjected to the standard procedure for biodistribution studies. In addition, urine was taken from all mice that were investigated in this experiment (8.4–9.0 MBq injected activity) and pooled (n = 5). Liver, tumor and kidneys were homogenized with a MM-400 ball mill (Retsch GmbH, Haan, Germany) at 30 Hz for 20 min and extracted with 1 mL radioimmunoprecipitation assay (RIPA) buffer containing 2 μmol of 2-(phosphonomethyl)pentane-1,5-dioic acid (2-PMPA). The suspension was centrifuged (15,200 rpm, 10 min, 21 °C) and the supernatants were loaded onto a preconditioned Strata-X cartridge (200 mg). Elution of the activity was conducted by 750 μL of MeCN/H2O (6/4, 0.1% TFA) and the extracts were analyzed via radio-RP-HPLC. Prior to solid phase extraction, blood samples were centrifuged twice (13,000 rpm, 5 min) to separate the plasma from the blood cells. Urine samples were also centrifuged (13,000 rpm, 5 min) and the supernatant was directly analyzed via radio-RP-HPLC.
Besides biodistribution and μSPECT/CT studies, [^177Lu]Lu-11 (tetrazole) was analyzed according to its metabolic stability 1 h p.i. Relevant dissected organs (tumor, kidney, liver) and body fluids (blood and urine) were collected, homogenized if necessary and subjected to extraction of the incorporated activity. […] The respective radio-RP-HPLC analyses of extracts from homogenized organs and body fluids are depicted in Figure 1 in the supporting information.
[^177Lu]Lu-11 (9.64 MBq) was injected into the tail vein of a LNCaP tumor xenograft-bearing CB17-SCID mouse. The animal was sacrificed 1 h p.i. and subjected to the standard procedure for biodistribution studies. In addition, urine was taken from all mice that were investigated in this experiment (8.4 - 9.0 MBq) and pooled (n = 5). Relevant dissected organs (tumor, kidneys, liver) and body fluids (blood and urine) were collected, homogenized if necessary and subjected to mechanochemical as well as solid phase extraction (SPE).
Four 2 mL LoBind tubes were equipped with steel and ceramic beads from Lysis Tubes W (analytikjena, Jena, Germany) for kidneys, tumor and liver (bisected). 1 mL radioimmunoprecipitation assay (RIPA) buffer containing 2.0 µmol of 2-PMPA was added to each tube and the organs were homogenized with a MM-400 ball mill (Retsch GmbH, Haan, Germany) at 30 Hz for 20 min. Afterwards, the homogenates were transferred to LoBind tubes free from steel and ceramic beads and centrifuged (15,200 rpm, 10 min, 21 °C). The first supernatants were stored, and the precipitates were again subjected to mechanochemical extraction with 1 mL RIPA buffer (2.0 µmol PMPA) at 30 Hz for 20 min. After centrifugation (15,200 rpm, 10 min, 21 °C), also the second supernatants were kept for SPE.
After cardiac puncture, 1 mL Tracepur®-H2O was directly added to the collected blood sample and centrifuged twice (13,000 rpm, 5 min) to separate the plasma from the blood cells. The precipitate was dissolved in 500 µL Tracepur®-H2O and together with the first supernatant again centrifuged (13,000 rpm, 5 min). Both supernatants were kept for SPE.
Pooled urine samples were centrifuged (13,000 rpm, 5 min) and the supernatant was directly analyzed via radio-RP-HPLC.

For the next data set, the target named is T1, PSMA (Homo sapiens, UniProt Q04609).
T1 construct: host or cells: LNCaP human prostate cancer cells
T1 sequence (Q04609 whole entry): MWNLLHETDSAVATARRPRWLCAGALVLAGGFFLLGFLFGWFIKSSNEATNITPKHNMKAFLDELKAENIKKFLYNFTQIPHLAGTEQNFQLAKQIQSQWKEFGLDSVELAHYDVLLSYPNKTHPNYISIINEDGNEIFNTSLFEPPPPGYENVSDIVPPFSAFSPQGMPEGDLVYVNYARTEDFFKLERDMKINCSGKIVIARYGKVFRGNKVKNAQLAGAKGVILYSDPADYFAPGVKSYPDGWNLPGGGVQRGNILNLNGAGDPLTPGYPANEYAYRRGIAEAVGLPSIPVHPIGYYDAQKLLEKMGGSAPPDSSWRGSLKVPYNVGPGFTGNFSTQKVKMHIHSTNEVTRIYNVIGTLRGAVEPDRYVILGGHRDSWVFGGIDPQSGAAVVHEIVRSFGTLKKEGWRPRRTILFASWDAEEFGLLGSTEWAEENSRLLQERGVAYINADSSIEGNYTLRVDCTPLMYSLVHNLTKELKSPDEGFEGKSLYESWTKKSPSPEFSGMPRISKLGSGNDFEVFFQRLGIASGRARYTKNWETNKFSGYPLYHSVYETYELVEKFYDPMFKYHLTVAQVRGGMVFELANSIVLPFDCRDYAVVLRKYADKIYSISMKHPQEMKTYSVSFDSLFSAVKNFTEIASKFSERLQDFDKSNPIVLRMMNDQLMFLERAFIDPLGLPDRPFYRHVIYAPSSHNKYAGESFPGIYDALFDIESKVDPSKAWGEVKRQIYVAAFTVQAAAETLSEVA
As to the kind of experiment: Competitive binding assay (IC50) on LNCaP cells with ([125I]I-BA)KuE as radioligand. As to conditions: ([125I]I-BA)KuE 0.2 nM, HBSS (1% BSA), 4 °C, 1 h. The protocol: PSMA-positive LNCaP cells (300265; Cell Lines Service, Eppelheim, Germany) were cultivated in Dulbecco’s modified Eagle medium/Nutrition Mixture F-12 with GlutaMAX (1/1, DMEM-F12, Thermo Fisher Scientific, Darmstadt, Germany) supplemented with 10% fetal bovine serum (Merck KGaA, Darmstadt, Germany) and kept at 37 °C in a humidified 5% CO2 atmosphere. One day (24 ± 2 h) prior to all in vitro experiments, the cultivated LNCaP cells were harvested using a mixture of trypsin/ethylenediamine-tetraacetic acid (0.05%/0.02%) in PBS (Thermo Fisher Scientific, Darmstadt, Germany) and centrifuged at 1300 rpm (ca. 190×g) for 3 min at room temperature (Heraeus Megafuge 16, Thermo Fisher Scientific, Darmstadt, Germany). After centrifugation, the supernatant was disposed and the cell pellet was resuspended in culture medium. Cells were counted with a Neubauer hemocytometer (Paul Marienfeld GmbH & Co. KG, Lauda-Königshofen, Germany) and seeded in 24-well plates.
Detailed information on affinity and internalization experiments is provided in the supporting information. […] IC50 values of (^natI-BA)KuE were determined on the same day for monitoring assay performance and to identify abnormal deviations in uptake and/or affinity. […] Data were corrected for non-specific binding and normalized to the specific internalization observed for the radioiodinated reference compound (n = 3).
The culture medium was removed and the cells were washed with 500 µL of Hank’s balanced salt solution (HBSS) (Merck KGaA, Darmstadt, Germany), containing 1% bovine serum albumin (BSA) (Merck KGaA, Darmstadt, Germany). Afterwards, 200 µL of HBSS (1% BSA) were added to each well and equilibrated on ice (4 °C) for 15 min. […] Experiments were carried out in triplicates for each concentration. The final concentrations of unlabeled ligand ranged from 10^-11 - 10^-5 M and the final radioligand concentration was 0.2 nM in all binding assays. The cells were incubated for one hour at 4 °C. Incubation was terminated by removal of the incubation medium. The cells were washed with 250 µL of HBSS (1% BSA) and the wash medium was combined with the respective supernatant. This fraction represents the amount of free radioligand. The cells were lysed by addition of 250 µL of 1 M aqueous NaOH. The lysate of each well was transferred to the respective vial as well as 250 µL of 1 M NaOH used for rinsing the well. Quantification of the amount of free and bound activity was performed in a γ-counter. The corresponding IC50 values were calculated using the GraphPad PRISM7 software.

Data set [2] in a line: Lipophilicity (log D), shake-flask method. The class given is physicochemical. As to conditions: from log D values. The protocol:
The log D values were determined, using the shake-flask method as previously described (Wurzer et al. [2020]). The radiolabeled tracer (0.5–1 MBq, 20 μL) was dissolved in 1 mL of a 1/1 mixture (v/v) of PBS (pH 7.4) and n-octanol in a reaction vial (n = 6). After vigorous mixing of the suspension for 3 min at r.t., the vial was centrifuged at 9000 rpm (ca. 7700×g) for 5 min at room temperature (Heraeus Biofuge 15, Thermo Fisher Scientific, Darmstadt, Germany) and 150 μL aliquots of both layers were measured in a ɣ-counter.

As to `CC(C)(C)[Si](F)(c1ccc(C(=O)NC[C@@H](NC(=O)CN2CCN(CC(=O)[O-])CCN(CC(=O)[O-])CCN(CC(=O)[O-])CC2)C(=O)N[C@H](CCCCNC(=O)CCC(=O)NCCC[C@@H](NC(=O)CC[C@H](NC(=O)N[C@@H](CCc2nnn[nH]2)C(=O)O)C(=O)O)C(=O)O)C(=O)O)cc1)C(C)(C)C.[Lu+3]` [^natLu/[^177Lu]Lu-11], in data set [1] (pooled urine (n = 5)), the “metabolite with higher hydrophilicity found in the urine” value is given as 18.7%. Also, in data set [1] (radio-RP-HPLC of extract), the “metabolite with higher hydrophilicity detected in blood” value is on record as 8.5%, the “metabolite with higher hydrophilicity detected in kidney” value was 11.7%, the “metabolite with higher hydrophilicity detected in tumor” value is reported as 7.1% and the “metabolite with higher hydrophilicity in the liver homogenate” value is recorded as “not detectable”. Moreover, the “more lipophilic metabolite (tR = 20.5 min) in the liver homogenate” value in data set [1] (radio-RP-HPLC of extract) was 28.0%. Besides, at PSMA, the half-inhibitory concentration (IC50) (as a rule, the concentration at which inhibition is half-maximal) turned out to be 16.4 ± 3.8 nM. Moreover, in data set [2], the “increase of lipophilicity compared to [177Lu]Lu-1” value is ~ 7.4 fold.
